Patent publication EP0306649A1, “3,5-Dihydroxycarboxylic acids and their derivatives, processes for their preparation, their use as medicaments, pharmaceutic preparations and intermediate products” (HOECHST AKTIENGESELLSCHAFT, priority 1987, dated 1989)
Read-outs that look alike come from different tables or passages of the source.

Columns and labels:
Cholesterin-Biosynthese = assay: Inhibition of cholesterol biosynthesis in cell culture by 14C precursor incorporation into cholesterol; type: cell-based; settings: HEP G2-Zellen monolayers in lipoprotein-free medium; 1 h preincubation, then 3 h with 14C-Natriumacetat; potency relative to Mevinolin tested in the same way
Source text: 2) Prüfung auf Cholesterin-Biosynthese-Hemmung in Zellkulturen durch ¹⁴-Präkursoreinbau in Cholesterin.
Monolayers von HEP G2-Zellen in lipoproteinfreiem Nährmedium wurden mit entsprechenden Konzentrationen der Prüfsubstanzen 1 Stunde vorinkubiert; nach Zugabe des ¹⁴C-markierten Präkursors ¹⁴C-Natriumacetat wurde die Inkubation für 3 Stunden fortgesetzt. Danach wurde ein Teil der Zellen alkalisch verseift bei vorheriger Zugabe eines internen Standards von ³H-Cholesterin. Die Lipide der verseiften Zellen wurden mit Chloroform-Methanol extrahiert. Dieses Lipidgemisch wurde nach Zusatz von Träger-Cholesterin präparativ dünnschichtchromatographisch getrennt, die Cholesterin-Bande nach dem Sichtbarmachen mit Jod-Dämpfen isoliert und die aus dem ¹⁴C-Präkursor gebildete Menge ¹⁴C-Cholesterins szintigraphisch bestimmt. In einem aliquoten Teil der Zellen wurde Zellprotein bestimmt, sodaß die in der Zeiteinheit/mg Zellprotein aus ¹⁴C-Präkursor gebildete Menge ¹⁴C-Cholesterins berechnet werden kann. Zum Vergleich für die Hemmwirkung eines zugesetzten Prüfpräparates diente die Lösungsmittelkontrolle, sodaß direkt die Hemmung der Cholesterin-Biosynthese bei einer bestimmten molaren Konzentration des Prüfpräparates im Medium angegeben werden kann. […]

[1] = rat; cited from earlier work
[2] = human trial; cited from earlier work

Compound	relative Weinstärke zu Mevinolin (Cholesterin-Biosynthese) [%]	cholesterinsenkende Wirkung [1]	cholesterinsenkende Wirkung [2]
CC(C)C(CCC(O)CC(O)CC(=O)[O-])=C(c1ccc(F)cc1)c1ccc(F)cc1.[Na+] (stereo not shown) [Beispiel 11n, 3,5-Dihydroxy-9,9-di-(4-flurophenyl)-8-isopropyl-8-nonensäure-Natriumsalz]	30		
CC(O)(CC(=O)O)CC(=O)O [3-Hydroxy-3-methyl-glutarsäure]		signifikante cholesterinsenkende Wirkung	signifikante cholesterinsenkende Wirkung
CC(C)C(C=CC(O)CC(O)CC(=O)[O-])=C(c1ccc(F)cc1)c1ccc(F)cc1.[Na+] (stereo not shown) [Beispiel 11a, 9,9-Di-(4-fluorphenyl)-3,5-dihydroxy-8-isopropyl-6,8-nonadiensäure Natriumsalz]	100		
